Consider 37 compounds from BindingDB's records for patent US11472769 (Eccogene (Shanghai) Co., Ltd., 2022).

T1 sequence (Q16853 whole entry, looked up): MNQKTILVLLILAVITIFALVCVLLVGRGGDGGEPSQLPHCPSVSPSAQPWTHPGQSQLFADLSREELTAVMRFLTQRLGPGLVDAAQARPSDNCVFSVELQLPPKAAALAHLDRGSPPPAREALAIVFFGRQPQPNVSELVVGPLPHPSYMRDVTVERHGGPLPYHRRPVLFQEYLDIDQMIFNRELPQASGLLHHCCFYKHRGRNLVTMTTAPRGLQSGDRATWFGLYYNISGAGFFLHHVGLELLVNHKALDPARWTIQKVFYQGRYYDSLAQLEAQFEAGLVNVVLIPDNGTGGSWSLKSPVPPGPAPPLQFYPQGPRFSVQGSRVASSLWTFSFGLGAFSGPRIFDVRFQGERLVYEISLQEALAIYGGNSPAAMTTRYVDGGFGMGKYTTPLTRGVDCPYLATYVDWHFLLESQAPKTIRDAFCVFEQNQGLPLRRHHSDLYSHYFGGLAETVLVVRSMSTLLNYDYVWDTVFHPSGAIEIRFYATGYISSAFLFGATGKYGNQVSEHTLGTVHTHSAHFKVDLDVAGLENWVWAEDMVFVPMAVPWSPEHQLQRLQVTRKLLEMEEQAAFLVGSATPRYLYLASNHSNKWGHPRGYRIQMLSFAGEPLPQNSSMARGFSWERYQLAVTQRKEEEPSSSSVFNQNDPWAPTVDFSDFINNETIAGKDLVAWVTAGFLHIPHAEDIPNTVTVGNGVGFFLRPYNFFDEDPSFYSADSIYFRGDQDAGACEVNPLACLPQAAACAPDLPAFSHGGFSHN

The test addresses T1, Amine oxidase [copper-containing] 3 (Homo sapiens, UniProt Q16853).
T1 construct: gene AOC3
The test can be described thus: SSAO Activity Assay. The method, then:
Amine oxidase activity of recombinant hSSAO, hMAO-A, and hMAO-B isoforms are measured using the MAO-Glo assay kit (Promega, V1402). Ten nL test compounds (with DMSO as vehicle, 0.1% v/v for hSSAO, hMAO-A and hMAO-B) were added into assay plates by Echo, and pre-incubated with 5 μL of enzyme for 30 mins at room temperature before the addition of 5 μL of luminogenic substrate. The substrate concentration is 40 μM for human recombinant SSAO, 40 μM for human recombinant MAO-A, and 4 μM for human recombinant MAO-B. The hSSAO and hMAO-A assays were conducted in the MAO-A reaction buffer in the kit, and the MAO-B assay was conducted in the MAO-B reaction buffer. Oxidation of the substrate was conducted for 1 hr, before the addition of detecting reagent according the manufacture's protocol. The IC50 value of the tested compounds was calculated by fitting the dose response curve using a 4-parameter non-linear regression routine.
As to `NC/C(=C\F)COc1ccc(S(=O)(=O)CC2CCCN(C(=O)C3CCCC3)C2)cc1` (configuration not stated) [US11472769, Compound 100], the IC50 result was “in the range around 60 nM”. For the compound `NC/C(=C\F)COc1ccc(S(=O)(=O)CC23CCC(C(=O)O)(CC2)CC3)cc1` [US11472769, Compound 146], the 50% inhibitory concentration (IC50) result was “in the range around 60 nM”. The value for `CC(C)C(=O)N(C)CC(C)(C)CS(=O)(=O)c1ccc(OC/C(=C/F)CN)cc1` [US11472769, Compound 96] was below 20 nM; that for `CO[C@H]1CC[C@@H](CS(=O)(=O)c2ccc(OC/C(=C/F)CN)cc2)CC1` [US11472769, Compound 20] was below 20 nM. With `CC1(CS(=O)(=O)c2ccc(OC/C(=C/F)CN)cc2F)CCOCC1` [US11472769, Compound 7], the IC50 is below 20 nM.

`C[C@@H](CN1CCOCC1)CS(=O)(=O)c1ccc(OC/C(=C/F)CN)cc1` [US11472769, Compound 113]: the IC50 was below 20 nM. On to `C[C@@H](CN1CCCCC1=O)CS(=O)(=O)c1ccc(OC/C(=C/F)CN)cc1` [US11472769, Compound 105], for which the IC50 entry is “in the range around 60 nM”. `NC/C(=C/F)COc1ccc(S(=O)(=O)CC23CCC(NC(=O)C4CC4)(CC2)CC3)cc1` [US11472769, Compound 139] gave an IC50 below 20 nM. The value for `NC/C(=C\F)COc1ccc(S(=O)(=O)CC23CCC(C(=O)NC4CCC4)(CC2)CC3)cc1` [US11472769, Compound 64] was below 20 nM.

On to `C[C@@H](CN1CCCC1=O)CS(=O)(=O)c1ccc(OC/C(=C/F)CN)cc1` [US11472769, Compound 94], for which the IC50 result was “in the range around 60 nM”. `CC(C)n1nc(CS(=O)(=O)c2ccc(OC/C(=C/F)CN)cc2)ccc1=O` [US11472769, Compound 102]: the IC50 was below 20 nM. To `NC/C(=C\F)COc1ccc(S(=O)(=O)C[C@@H]2CCCO2)cc1` [US11472769, Compound 23] belongs “in the range around 60 nM”; to `C[C@H](CN1CCCCC1=O)CS(=O)(=O)c1ccc(OC/C(=C/F)CN)cc1` [US11472769, Compound 104], “in the range around 60 nM”; to `NC/C(=C\F)COc1ccc(S(=O)(=O)C[C@H]2CC[C@H](NC(=O)C3CC3)CC2)cc1` [US11472769, Compound 88], below 20 nM. The value for `NC/C(=C\F)COc1ccc(S(=O)(=O)C[C@H]2CC[C@H](O)CC2)cc1` [US11472769, Compound 14] was “in the range around 60 nM”; that for `NC/C(=C\F)COc1ccc(S(=O)(=O)Cc2ccc(C(=O)N3CCCC3)cc2)cc1` [US11472769, Compound 46] was “in the range around 60 nM”. Consider `CC1CCN(C23CCC(CS(=O)(=O)c4ccc(OC/C(=C/F)CN)cc4)(CC2)CC3)C1=O` (configuration not stated) [US11472769, Compound 83], for which the IC50 was below 20 nM. For `C[C@H](CN1CCC2(CCCC2)C1=O)CS(=O)(=O)c1ccc(OC/C(=C/F)CN)cc1` [US11472769, Compound 109], the IC50 result was “in the range around 60 nM”. The value for `N#CC12CCC(CS(=O)(=O)c3ccc(OC/C(=C/F)CN)cc3)(CC1)CC2` [US11472769, Compound 87] was below 20 nM; that for `CC1(CS(=O)(=O)c2ccc(OC/C(=C/F)CN)cc2)CCOCC1` [US11472769, Compound 5] was below 20 nM; that for `NC/C(=C\F)COc1ccc(S(=O)(=O)C[C@H]2CC[C@@H](O)CC2)cc1` [US11472769, Compound 15] was below 20 nM.

Regarding `COCS(=O)(=O)c1ccc(OC/C(=C/F)CN)cc1` [US11472769, Compound 28], the half-inhibitory concentration (IC50) is below 20 nM. Compound `NC/C(=C\F)COc1ccc(S(=O)(=O)CC23CCC(NC(=O)C4CC4)(CC2)CC3)cc1` [US11472769, Compound 76] came in with an IC50 below 20 nM. To `NC/C(=C\F)COc1ccc(S(=O)(=O)CC23CCC(C4(O)CC4)(CC2)CC3)cc1` [US11472769, Compound 18] belongs below 20 nM; to `NC/C(=C\F)COc1ccc(S(=O)(=O)CC2CCOCC2)cc1` [US11472769, Compound 1], below 20 nM. The compound `NC/C(=C\F)COc1ccc(S(=O)(=O)CC2CCN(C(=O)c3ccc(F)cc3)CC2)cc1` [US11472769, Compound 39] gave a concentration for half-maximal inhibition (IC50) below 20 nM. The value for `C[C@H](CN1CCOCC1)CS(=O)(=O)c1ccc(OC/C(=C/F)CN)cc1` [US11472769, Compound 112] was “in the range around 60 nM”; that for `NC/C(=C\F)COc1ccc(S(=O)(=O)CC2CCOCC2)cc1F` [US11472769, Compound 9] was below 20 nM.

In turn, `NC/C(=C\F)COc1ccc(S(=O)(=O)CC23CCC(N4CCCS4(=O)=O)(CC2)CC3)cc1` [US11472769, Compound 82] came in with an IC50 below 20 nM. `CO[C@H]1CC[C@H](CS(=O)(=O)c2ccc(OC/C(=C/F)CN)cc2)CC1` [US11472769, Compound 19] displayed an IC50 below 20 nM. As for `C[C@@H](CN1CCC2(CCCC2)C1=O)CS(=O)(=O)c1ccc(OC/C(=C/F)CN)cc1` [US11472769, Compound 110], the IC50 entry was “in the range around 60 nM”.

Regarding `NC/C(=C\F)COc1ccc(S(=O)(=O)CC23CCC(NC(=O)CC(F)(F)F)(CC2)CC3)cc1` [US11472769, Compound 79], the IC50 is below 20 nM. Take `NC/C(=C\F)COc1ccc(S(=O)(=O)C[C@H]2CCOC2)cc1` [US11472769, Compound 22]: the IC50 entry is “in the range around 60 nM”. For `NC/C(=C\F)COc1ccc(S(=O)(=O)C[C@@H]2CCOC2)cc1` [US11472769, Compound 21], the IC50 result was “in the range around 60 nM”. As for `NC/C(=C\F)COc1ccc(S(=O)(=O)COCC2CCOCC2)cc1` [US11472769, Compound 30], the 50% inhibitory concentration (IC50) was below 20 nM. `NC/C(=C\F)COc1ccc(S(=O)(=O)C[C@H]2CCCO2)cc1` [US11472769, Compound 24] came in with an IC50 below 20 nM. The compound `C[C@H](CN1CCCC1=O)CS(=O)(=O)c1ccc(OC/C(=C/F)CN)cc1` [US11472769, Compound 93] yielded an IC50 above 500 nM.
